According to the supplement of paper PMC10307832:

Experiments:
Test in all cases: relative viability (nuclei count vs DMSO), 5 days (fraction); higher = more cells survive
[1] = system: BEN
In short: (§1)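 Lung cancer cell lines were seeded in 1536-well plates and dosed by pin tool the next day, with either a single drug or a fixed anchor-drug dose combined with five library-drug doses (not always all listed) spaced in √10 steps. Five days later, one step fixed the cells and stained their nuclei (final 0.05% Triton X-100, 1% formaldehyde, 1 ug/ml Hoechst), and nuclei were counted on 4× images. Relative viability is the nuclei count in treated wells divided by the count in vehicle wells, and each value is the median of duplicate plates.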

[2] = system: CAL-12T
In short: as §1

[3] = system: EKVX
In short: as §1

[4] = system: HCC-15
In short: as §1

[5] = system: HCC-366
In short: as §1

[6] = system: HCC-44
In short: as §1

[7] = system: LOU-NH91
In short: as §1

[8] = system: NCI-H1355
In short: as §1

[9] = system: NCI-H1395
In short: as §1

[10] = system: NCI-H1437
In short: as §1

[11] = system: NCI-H1650
In short: as §1

[12] = system: NCI-H1651
In short: as §1

[13] = system: NCI-H1734
In short: as §1

[14] = system: NCI-H1755
In short: as §1

[15] = system: NCI-H1975
In short: as §1

[16] = system: NCI-H2023
In short: as §1

[17] = system: NCI-H2085
In short: as §1

[18] = system: NCI-H441
In short: as §1

[19] = system: NCI-H460
In short: as §1

[20] = system: NCI-H838
In short: as §1

Work on `COc1cc(N2CCC(C(N)=O)CC2)ccc1Nc1nc(N)c(Cl)c(Nc2ccccc2S(=O)(=O)C(C)C)n1` [HG-5-88-01] + CC1(C)CCC(c2ccc(Cl)cc2)=C(CN2CCN(c3ccc(C(=O)NS(=O)(=O)c4ccc(N[C@H](CCN5CCOCC5)CSc5ccccc5)c(S(=O)(=O)C(F)(F)F)c4)cc3)CC2)C1 [Navitoclax] (partner 0.5 µM) yielded a relative viability ([1]; first compound 0.04 µM) of 0.0887, a relative viability ([1]; first compound 0.1265 µM) of 0.0551 and a relative viability ([1]; first compound 0.4 µM) of 0.0596. For the same molecule, the relative viability ([1]; first compound 1.265 µM) was 0.0568, the relative viability ([1]; first compound 4 µM) was 0.0605 and the relative viability ([2]; first compound 0.04 µM) was 1.26. It also gave a relative viability ([2]; first compound 0.1265 µM) of 1.15, a relative viability ([2]; first compound 0.4 µM) of 1.18 and a relative viability ([2]; first compound 1.265 µM) of 1.14. For the same molecule, the relative viability ([2]; first compound 4 µM) was 1.02, the relative viability ([3]; first compound 0.04 µM) was 1.03 and the relative viability ([3]; first compound 0.1265 µM) was 0.952. The relative viability ([3]; first compound 0.4 µM) was 0.634, the relative viability ([3]; first compound 4 µM) was 0.839 and the relative viability ([4]; first compound 0.04 µM) was 0.702. For the same molecule, the relative viability ([4]; first compound 0.1265 µM) was 0.74, the relative viability ([4]; first compound 0.4 µM) was 0.672 and the relative viability ([4]; first compound 1.265 µM) was 0.723. It also gave a relative viability ([4]; first compound 4 µM) of 0.464, a relative viability ([5]; first compound 0.04 µM) of 0.952 and a relative viability ([5]; first compound 0.1265 µM) of 1.04. For the same molecule, the relative viability ([5]; first compound 0.4 µM) was 0.79, the relative viability ([5]; first compound 1.265 µM) was 1.02 and the relative viability ([5]; first compound 4 µM) was 1.29. The relative viability ([6]; first compound 0.04 µM) was 1.07, the relative viability ([6]; first compound 0.1265 µM) was 1.03 and the relative viability ([6]; first compound 0.4 µM) was 0.77. For the same molecule, the relative viability ([6]; first compound 1.265 µM) was 0.922, the relative viability ([6]; first compound 4 µM) was 0.846 and the relative viability ([7]; first compound 0.04 µM) was 0.72. For the same molecule, the relative viability ([7]; first compound 0.1265 µM) was 0.693, the relative viability ([7]; first compound 0.4 µM) was 0.605 and the relative viability ([7]; first compound 1.265 µM) was 0.378. The relative viability ([7]; first compound 4 µM) was 0.468, the relative viability ([8]; first compound 0.04 µM) was 1.01 and the relative viability ([8]; first compound 0.1265 µM) was 1.08. The relative viability ([8]; first compound 0.4 µM) was 0.959, the relative viability ([8]; first compound 1.265 µM) was 0.789 and the relative viability ([8]; first compound 4 µM) was 0.841. For the same molecule, the relative viability ([9]; first compound 0.04 µM) was 1.08, the relative viability ([9]; first compound 0.1265 µM) was 1.18 and the relative viability ([9]; first compound 0.4 µM) was 1.25. For the same molecule, the relative viability ([9]; first compound 1.265 µM) was 1.03, the relative viability ([9]; first compound 4 µM) was 1.09 and the relative viability ([10]; first compound 0.04 µM) was 1.1. It also gave a relative viability ([10]; first compound 0.1265 µM) of 1.11, a relative viability ([10]; first compound 0.4 µM) of 1.05 and a relative viability ([10]; first compound 1.265 µM) of 1.04. For the same molecule, the relative viability ([10]; first compound 4 µM) was 1.02, the relative viability ([11]; first compound 0.04 µM) was 1.54 and the relative viability ([11]; first compound 0.1265 µM) was 1.32. The relative viability ([11]; first compound 0.4 µM) was 1.26, the relative viability ([11]; first compound 1.265 µM) was 0.918 and the relative viability ([11]; first compound 4 µM) was 1.07. The relative viability ([12]; first compound 0.04 µM) was 1.27, the relative viability ([12]; first compound 0.1265 µM) was 1.04 and the relative viability ([12]; first compound 0.4 µM) was 1.08. The relative viability ([12]; first compound 1.265 µM) was 1.05, the relative viability ([12]; first compound 4 µM) was 1.04 and the relative viability ([13]; first compound 0.04 µM) was 0.771. It also gave a relative viability ([13]; first compound 0.1265 µM) of 0.858, a relative viability ([13]; first compound 0.4 µM) of 0.943 and a relative viability ([13]; first compound 1.265 µM) of 0.827. For the same molecule, the relative viability ([13]; first compound 4 µM) was 0.757, the relative viability ([14]; first compound 0.1265 µM) was 0.991 and the relative viability ([14]; first compound 0.4 µM) was 1.01. The relative viability ([14]; first compound 1.265 µM) was 1.01, the relative viability ([14]; first compound 4 µM) was 1.01 and the relative viability ([15]; first compound 0.04 µM) was 1.13. The relative viability ([15]; first compound 0.1265 µM) was 1.15, the relative viability ([15]; first compound 0.4 µM) was 1.09 and the relative viability ([15]; first compound 1.265 µM) was 0.858. The relative viability ([15]; first compound 4 µM) was 0.352, the relative viability ([16]; first compound 0.04 µM) was 1.01 and the relative viability ([16]; first compound 0.1265 µM) was 0.94. For the same molecule, the relative viability ([16]; first compound 0.4 µM) was 0.934, the relative viability ([16]; first compound 1.265 µM) was 0.787 and the relative viability ([16]; first compound 4 µM) was 0.804. It also gave a relative viability ([17]; first compound 0.04 µM) of 1.2, a relative viability ([17]; first compound 0.1265 µM) of 1.26 and a relative viability ([17]; first compound 0.4 µM) of 1.06. The relative viability ([17]; first compound 1.265 µM) was 0.873, the relative viability ([17]; first compound 4 µM) was 1.13 and the relative viability ([18]; first compound 0.04 µM) was 0.661. It also gave a relative viability ([18]; first compound 0.1265 µM) of 0.675, a relative viability ([18]; first compound 0.4 µM) of 0.714 and a relative viability ([18]; first compound 1.265 µM) of 0.609. For the same molecule, the relative viability ([18]; first compound 4 µM) was 0.679, the relative viability ([19]; first compound 0.04 µM) was 0.975 and the relative viability ([19]; first compound 0.1265 µM) was 1.12. It also gave a relative viability ([19]; first compound 0.4 µM) of 0.901, a relative viability ([19]; first compound 1.265 µM) of 1.15 and a relative viability ([19]; first compound 4 µM) of 1.06. The relative viability ([20]; first compound 0.04 µM) was 1.09, the relative viability ([20]; first compound 0.1265 µM) was 1.2 and the relative viability ([20]; first compound 0.4 µM) was 1.07. It also gave a relative viability ([20]; first compound 1.265 µM) of 0.973 and a relative viability ([20]; first compound 4 µM) of 0.904.
